Reference: the NIST ThermoML archive (doi:10.1016/j.fluid.2018.04.007)

How the values were obtained:
[1] = refractive index (Na D-line) (dimensionless); xn = mol fraction of the nth substance listed; conditions: 101 kPa, Liquid, Standard Abbe refractometry
[2] = relative permittivity at various frequencies (dimensionless); xn = mol fraction of the nth substance listed; conditions: 101 kPa, Liquid, Frequency=1 MHz, Parallel plate capacitor

CCCCCCN [1-hexanamine] + CCCCO
Conditions | refractive index, 293.15 K | refractive index, 298.15 K | refractive index, 303.15 K | relative permittivity, 293.15 K | relative permittivity, 298.15 K | relative permittivity, 303.15 K
[1], x2 = 0 | 1.4181 | 1.41565 | 1.41322 | – | – | –
[1], x2 = 0.0552 | 1.41812 | 1.41564 | 1.41324 | – | – | –
[1], x2 = 0.0896 | 1.418 | 1.41556 | 1.41319 | – | – | –
[1], x2 = 0.1588 | 1.41781 | 1.41542 | 1.41306 | – | – | –
[1], x2 = 0.1967 | 1.41768 | 1.41529 | 1.41294 | – | – | –
[1], x2 = 0.3035 | 1.41702 | 1.4147 | 1.4124 | – | – | –
[1], x2 = 0.4077 | 1.41603 | 1.41381 | 1.41148 | – | – | –
[1], x2 = 0.4984 | 1.41487 | 1.41267 | 1.4104 | – | – | –
[1], x2 = 0.6004 | 1.41298 | 1.41079 | 1.40852 | – | – | –
[1], x2 = 0.6977 | 1.41065 | 1.40845 | 1.40621 | – | – | –
[1], x2 = 0.7982 | 1.40746 | 1.40534 | 1.40316 | – | – | –
[1], x2 = 0.8451 | 1.40577 | 1.40368 | 1.40155 | – | – | –
[1], x2 = 0.8996 | 1.40359 | 1.40158 | 1.39949 | – | – | –
[1], x2 = 0.9461 | 1.40166 | 1.39965 | 1.39765 | – | – | –
[2], x2 = 0 | – | – | – | 3.965 | 3.904 | 3.845
[2], x2 = 0.051 | – | – | – | 4.258 | 4.186 | 4.12
[2], x2 = 0.0969 | – | – | – | 4.538 | 4.46 | 4.385
[2], x2 = 0.1402 | – | – | – | 4.828 | 4.739 | 4.656
[2], x2 = 0.2052 | – | – | – | 5.294 | 5.19 | 5.094
[2], x2 = 0.3095 | – | – | – | 6.164 | 6.028 | 5.898
[2], x2 = 0.4059 | – | – | – | 7.139 | 6.965 | 6.797
[2], x2 = 0.5054 | – | – | – | 8.352 | 8.121 | 7.905
[2], x2 = 0.593 | – | – | – | 9.623 | 9.333 | 9.058
[2], x2 = 0.6983 | – | – | – | 11.376 | 11.005 | 10.656
[2], x2 = 0.8047 | – | – | – | 13.472 | 13.003 | 12.566
[2], x2 = 0.8525 | – | – | – | 14.558 | 14.054 | 13.565
[2], x2 = 0.9035 | – | – | – | 15.741 | 15.182 | 14.656
[2], x2 = 0.946 | – | – | – | 16.795 | 16.197 | 15.632
